{"source": "patent US20090035815A1", "about": "“Synthetic Gene for Enhanced Expression in E. Coli” (priority 2007, published 2009)", "system": "PC-12 cells", "assay": "In-vitro bioassay of recombinant Nesiritide: cGMP induction in PC-12 cells", "assay_type": "cell-based, Rat", "settings": "30 mins", "description": "In all five batches of Nesiritide of the present invention, the cGMP induction in PC-12 cells the Nesiritide concentration (nM) is directly proportional to the concentration of Nesiritide used in culture. Culture format: 24-well plate; Cells used: PC-12 cells (Rat adrenal pheochromocytoma); no. of cells plated: 1.0×10^6 cells per well; Parameter measured: cGMP from cell lysate; Method used: Competitive Inhibition Assay (Acetylated format); Kit used: Correlate-EIA cGMP kit Assay Design Inc., USA.\nNesiritide is known to elicit its biological activity via a cGMP second messenger system in vitro and in vivo. PC-12 cells were plated in Plain RPMI medium in 24-well plate and equilibrated at 37° C., 5% CO2 incubator for 2 hrs. Prestimulation medium (RPMI+0.1% BSA+0.1 mM IBMX) was added to cells for 10 mins. It was followed by the addition of different concentrations of Nesiritide for 30 mins at 37° C., 5% CO2 incubator. The cells were lysed with 0.1M HCL for 20 mins followed by 5-7 freeze-thaw cycles. The cell lysates were centrifuged in microfuge at 10000 rpm for 10 mins at 4° C. Protein concentration of the supernatant was estimated by Bradford's method. The supernatant from cell lysates was assayed for cGMP concentration (FIG. 13) using a cGMP kit (Assay Design Inc). The cGMP from cell lysates was estimated from cGMP standard curve. ED50 value was calculated.", "data": [{"substance": "USV B. No 5606: batch of recombinant nesiritide of the present invention (Seq. ID NO:2)", "values": [{"measurement": "cGMP levels", "setting": "Nesiritide Conc 25 nM", "value": "0.119 ± 0.01", "unit": "pmol/mL"}, {"measurement": "cGMP levels", "setting": "Nesiritide Conc 50 nM", "value": "0.150 ± 0.03", "unit": "pmol/mL"}, {"measurement": "cGMP levels", "setting": "Nesiritide Conc 75 nM", "value": 0.321, "unit": "pmol/mL"}, {"measurement": "cGMP levels", "setting": "Nesiritide Conc 100 nM", "value": "0.475 ± 0.01", "unit": "pmol/mL"}, {"measurement": "cGMP levels", "setting": "Nesiritide Conc 150 nM", "value": "0.787 ± 0.07", "unit": "pmol/mL"}, {"measurement": "cGMP levels", "setting": "Nesiritide Conc 200 nM", "value": "1.006 ± 0.05", "unit": "pmol/mL"}]}, {"substance": "USV B. No 5706: batch of recombinant nesiritide of the present invention (Seq. ID NO:2)", "values": [{"measurement": "cGMP levels", "setting": "Nesiritide Conc 25 nM", "value": "0.114 ± 0.005", "unit": "pmol/mL"}, {"measurement": "cGMP levels", "setting": "Nesiritide Conc 50 nM", "value": "0.191 ± 0.01", "unit": "pmol/mL"}, {"measurement": "cGMP levels", "setting": "Nesiritide Conc 75 nM", "value": "0.305 ± 0.05", "unit": "pmol/mL"}, {"measurement": "cGMP levels", "setting": "Nesiritide Conc 100 nM", "value": "0.478 ± 0.06", "unit": "pmol/mL"}, {"measurement": "cGMP levels", "setting": "Nesiritide Conc 150 nM", "value": "0.756 ± 0.02", "unit": "pmol/mL"}, {"measurement": "cGMP levels", "setting": "Nesiritide Conc 200 nM", "value": "1.085 ± 0.06", "unit": "pmol/mL"}]}, {"substance": "USV B. No 5406: batch of recombinant nesiritide of the present invention (Seq. ID NO:2)", "values": [{"measurement": "cGMP levels", "setting": "Nesiritide Conc 25 nM", "value": "0.133 ± 0.004", "unit": "pmol/mL"}, {"measurement": "cGMP levels", "setting": "Nesiritide Conc 50 nM", "value": "0.161 ± 0.01", "unit": "pmol/mL"}, {"measurement": "cGMP levels", "setting": "Nesiritide Conc 75 nM", "value": "0.383 ± 0.02", "unit": "pmol/mL"}, {"measurement": "cGMP levels", "setting": "Nesiritide Conc 100 nM", "value": "0.444 ± 0.06", "unit": "pmol/mL"}, {"measurement": "cGMP levels", "setting": "Nesiritide Conc 150 nM", "value": "0.799 ± 0.08", "unit": "pmol/mL"}, {"measurement": "cGMP levels", "setting": "Nesiritide Conc 200 nM", "value": "1.214 ± 0.06", "unit": "pmol/mL"}]}, {"substance": "b-type natriuretic peptide (1-32) [Bachem, reference compound]", "values": [{"measurement": "cGMP levels", "setting": "Nesiritide Conc 25 nM", "value": "0.121 ± 0.006", "unit": "pmol/mL"}, {"measurement": "cGMP levels", "setting": "Nesiritide Conc 50 nM", "value": "0.164 ± 0.05", "unit": "pmol/mL"}, {"measurement": "cGMP levels", "setting": "Nesiritide Conc 75 nM", "value": "0.327 ± 0.05", "unit": "pmol/mL"}, {"measurement": "cGMP levels", "setting": "Nesiritide Conc 100 nM", "value": "0.502 ± 0.05", "unit": "pmol/mL"}, {"measurement": "cGMP levels", "setting": "Nesiritide Conc 150 nM", "value": "0.793 ± 0.02", "unit": "pmol/mL"}, {"measurement": "cGMP levels", "setting": "Nesiritide Conc 200 nM", "value": "1.206 ± 0.08", "unit": "pmol/mL"}]}]}
